Assay results taken from publication PMC10882719 (Frontiers in Neuroscience, 2024).
Where two headings read alike, the source gives them in different places.

Key:
Type in all cases: cell-based
168 GPCRs [1] = target: T1, 168 GPCRs (Homo sapiens, UniProt O43613)
T1 construct: host or cells: PathHunter cell lines
T1 sequence (O43613 1-425): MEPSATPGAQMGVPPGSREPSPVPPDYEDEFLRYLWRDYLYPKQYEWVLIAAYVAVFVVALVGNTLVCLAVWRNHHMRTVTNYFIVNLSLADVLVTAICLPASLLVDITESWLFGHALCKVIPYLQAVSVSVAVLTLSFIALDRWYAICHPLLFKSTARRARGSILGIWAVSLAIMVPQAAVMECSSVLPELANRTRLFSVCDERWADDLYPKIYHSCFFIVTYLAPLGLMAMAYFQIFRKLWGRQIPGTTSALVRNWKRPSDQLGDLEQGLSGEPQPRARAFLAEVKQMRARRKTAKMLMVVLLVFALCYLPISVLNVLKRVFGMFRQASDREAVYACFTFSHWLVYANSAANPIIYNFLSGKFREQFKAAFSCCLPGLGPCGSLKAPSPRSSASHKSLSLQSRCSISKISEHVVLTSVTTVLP

168 GPCRs [2] = target: T2, 168 GPCRs (Homo sapiens, UniProt P11229)
T2 construct: host or cells: PathHunter cell lines
T2 sequence (P11229 1-460): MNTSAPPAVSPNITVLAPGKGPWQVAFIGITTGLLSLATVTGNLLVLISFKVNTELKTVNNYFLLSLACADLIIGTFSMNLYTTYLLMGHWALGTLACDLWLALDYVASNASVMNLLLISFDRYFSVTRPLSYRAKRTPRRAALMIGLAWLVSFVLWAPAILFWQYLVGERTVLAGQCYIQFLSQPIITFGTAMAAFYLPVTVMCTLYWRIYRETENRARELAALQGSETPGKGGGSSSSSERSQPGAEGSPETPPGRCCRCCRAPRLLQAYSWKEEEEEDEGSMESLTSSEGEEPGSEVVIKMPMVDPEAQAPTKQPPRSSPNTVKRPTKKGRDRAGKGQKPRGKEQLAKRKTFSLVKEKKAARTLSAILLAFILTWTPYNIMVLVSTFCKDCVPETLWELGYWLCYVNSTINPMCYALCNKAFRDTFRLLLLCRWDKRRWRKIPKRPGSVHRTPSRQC

168 GPCRs [3] = target: T3, 168 GPCRs (Homo sapiens, UniProt P41586)
T3 construct: host or cells: PathHunter cell lines
T3 sequence (P41586 21-468): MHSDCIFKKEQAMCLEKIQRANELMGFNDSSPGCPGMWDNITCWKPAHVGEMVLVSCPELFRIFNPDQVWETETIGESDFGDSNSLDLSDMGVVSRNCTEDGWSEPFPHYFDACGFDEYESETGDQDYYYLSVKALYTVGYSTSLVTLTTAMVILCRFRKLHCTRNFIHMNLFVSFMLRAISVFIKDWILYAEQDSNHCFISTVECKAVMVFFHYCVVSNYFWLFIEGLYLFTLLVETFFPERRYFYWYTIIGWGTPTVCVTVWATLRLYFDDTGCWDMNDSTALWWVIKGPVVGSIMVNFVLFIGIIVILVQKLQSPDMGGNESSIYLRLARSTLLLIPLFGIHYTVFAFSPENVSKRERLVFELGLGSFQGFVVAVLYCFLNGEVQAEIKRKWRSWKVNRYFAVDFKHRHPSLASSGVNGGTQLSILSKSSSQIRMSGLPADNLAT

168 GPCRs [4] = target: T4, 168 GPCRs (Homo sapiens, UniProt Q8NFJ6); details: PROKR2
T4 construct: host or cells: PathHunter cell lines

168 GPCRs [5] = target: T5, 168 GPCRs (Homo sapiens, UniProt Q96RI0)
T5 construct: host or cells: PathHunter cell lines
T5 sequence (Q96RI0 18-385): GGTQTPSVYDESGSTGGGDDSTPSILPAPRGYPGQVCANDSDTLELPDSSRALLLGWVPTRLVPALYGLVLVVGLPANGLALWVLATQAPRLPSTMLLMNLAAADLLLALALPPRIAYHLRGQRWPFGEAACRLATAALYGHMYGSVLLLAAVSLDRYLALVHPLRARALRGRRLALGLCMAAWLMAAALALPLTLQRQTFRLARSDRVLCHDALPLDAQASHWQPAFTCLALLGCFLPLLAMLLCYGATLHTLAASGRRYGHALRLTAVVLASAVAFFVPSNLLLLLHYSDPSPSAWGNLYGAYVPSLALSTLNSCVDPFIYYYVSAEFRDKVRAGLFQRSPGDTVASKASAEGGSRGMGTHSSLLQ

T4 sequence (Q8NFJ6 whole entry): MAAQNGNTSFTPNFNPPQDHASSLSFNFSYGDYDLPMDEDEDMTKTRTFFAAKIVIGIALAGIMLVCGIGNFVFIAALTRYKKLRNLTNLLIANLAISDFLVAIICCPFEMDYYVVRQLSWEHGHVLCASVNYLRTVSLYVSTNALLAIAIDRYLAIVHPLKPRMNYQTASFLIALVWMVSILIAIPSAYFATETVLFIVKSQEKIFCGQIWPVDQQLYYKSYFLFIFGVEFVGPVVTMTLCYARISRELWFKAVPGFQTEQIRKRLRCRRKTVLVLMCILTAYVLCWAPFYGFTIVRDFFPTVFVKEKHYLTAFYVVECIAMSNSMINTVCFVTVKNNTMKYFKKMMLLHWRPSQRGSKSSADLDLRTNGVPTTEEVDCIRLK

SMILES | % Agonist Activity (168 GPCRs [1]; HCRTR1, 1 uM) | % Antagonist Activity (168 GPCRs [1]; HCRTR1, 1 uM) | % Agonist Activity (168 GPCRs [1]; HCRTR1, 10 uM) | % Antagonist Activity (168 GPCRs [1]; HCRTR1, 10 uM) | % Agonist Activity (168 GPCRs [2]; CHRM1, 1 uM) | % Antagonist Activity (168 GPCRs [2]; CHRM1, 1 uM) | % Agonist Activity (168 GPCRs [2]; CHRM1, 10 uM) | % Antagonist Activity (168 GPCRs [2]; CHRM1, 10 uM) | % Agonist Activity (168 GPCRs [3]; ADCYAP1R1, 1 uM) | % Antagonist Activity (168 GPCRs [3]; ADCYAP1R1, 1 uM) | % Agonist Activity (168 GPCRs [3]; ADCYAP1R1, 10 uM) | % Antagonist Activity (168 GPCRs [3]; ADCYAP1R1, 10 uM) | % Agonist Activity (168 GPCRs [4]; Conc 1 uM) | % Antagonist Activity (168 GPCRs [4]; Conc 1 uM) | % Agonist Activity (168 GPCRs [4]; Conc 10 uM) | % Antagonist Activity (168 GPCRs [4]; Conc 10 uM) | % Agonist Activity (168 GPCRs [5]; F2RL3, 1 uM) | % Antagonist Activity (168 GPCRs [5]; F2RL3, 1 uM) | % Agonist Activity (168 GPCRs [5]; F2RL3, 10 uM) | % Antagonist Activity (168 GPCRs [5]; F2RL3, 10 uM)
CNC(C)Cc1ccc2c(c1)OCO2 (stereo not shown) [MDMA, 3,4-Methylenedioxy methamphetamine, reference compound] | -0.2% | 8.6% | -0.1% | 15% | 0.2% | 12.1% | 0.7% | 0.1% | -0.3% | -0.9% | -0.8% | -0.1% | -0.6% | 14.4% | -0.3% | 19.4% | 10.8% | 9.6% | 8.5% | 13.3%
CNC(C)C(=O)c1ccc2c(c1)OCO2 (stereo not shown) [methylone] | -0.1% | 2.3% | -0.1% | 1.2% | -9.1% | 15.8% | -8.5% | 2% | -4% | 13.6% | -3% | 12.5% | -0.6% | 2% | -0.6% | -6.8% | 4.3% | -11.3% | 7% | -6.9%
